Data published in patent US20150125915A1, “Method for Producing Lactic Acid” (Kao Corporation, priority 2012, published 2015).

Tests used:
[1] = test system: Rhizopus oryzae JCM14625 strain (=NBRC 5384); test: LDH activity evaluation-1: mycelia prepared from spores in surfactant-supplemented PDB medium, LDH activity of fungus body extract; format: cell-based; details: for LDH activity (relative value): 0.5% (w/v) surfactant in PDB medium at spore germination, LDH activity in the absence of the surfactant = 100; for LDH activity compared with control fungus bodies (in words): 0.5% (w/v) surfactant at spore germination, versus medium non-supplemented with the surfactant
Protocol: A loopful of a cryopreserved spore suspension sample (−80° C.) of a Rhizopus oryzae JCM14625 strain (=NBRC 5384) obtained from a culture collection Riken BioResource Center (BRC) was inoculated to a PDA medium (Difco Potato Dextrose Agar, manufactured by Becton, Dickinson and Company) and then statically cultured at 30° C. for from 7 to 10 days. After visual confirmation of hyphal growth and blackening at the ends of hyphae associated with sporulation, from 30 to 40 mL of saline was added thereto. Spores, together with hyphae, were collected into a 50-mL centrifugal tube with a lid (manufactured by Greiner bio-one) using a platinum loop and then vigorously mixed in the tube. The spore suspension thus mixed was filtered through 3GP100 cylindrical funnel-shaped glass filter (manufactured by Shibata Scientific Technology Ltd.). The resulting filtrate was used as a spore solution. The number of spores in the spore solution was measured using a hemocytometer (D=1/50 mm· 1/400 mm^2) after appropriate dilution with saline.
80 mL of a PDB medium non-supplemented or supplemented with 0.5% (w/v) (final concentration) of each surfactant described below was applied to a 200-mL baffled Erlenmeyer flask (manufactured by Asahi Glass Co., Ltd.). The Rhizopus oryzae spore suspension prepared in Production Example 1 was inoculated thereto at a dose of 1×10^3 spores/mL of the medium and then cultured at 27° C. for 3 days with stirring at 170 rpm. Since mycelia would remain on the filter, the cultures were filtered through a stainless sieve of 250 μm in mesh size (manufactured by AS ONE Corp.) sterilized in advance to recover fungus bodies onto the filter.
From3.0 to 4.0 g (wet weight) of the recovered fungus bodies was inoculated to 100 mL of an inorganic culture medium (composition: 10% glucose, 0.1% ammonium sulfate, 0.06% potassium dihydrogen phosphate, 0.025% magnesium sulfate heptahydrate, 0.009% zinc sulfate heptahydrate, and 5.0% calcium carbonate; all the concentrations mean % (w/v)) applied to a 500-mL Erlenmeyer flask, and then cultured at 27° C. for approximately 40 hours with stirring at 220 rpm. Subsequently, the cultures thus obtained by culture in the inorganic culture medium were filtered using a stainless screen filter holder (manufactured by EMD Millipore) sterilized in advance to recover fungus bodies onto the filter. On this filter holder, the fungus bodies were further washed with 100 mL of saline. The saline used in washing was removed by suction filtration. The obtained fungus bodies were used in the following LDH activity evaluation and evaluation of the ability to fermentatively produce lactic acid.
6.0 g of the wet fungus bodies of the genus Rhizopus obtained in Production Example 3 was inoculated to 40 mL of an inorganic culture medium for lactic acid production evaluation (composition: 8.0% glucose, 0.1% ammonium sulfate, 0.06% potassium dihydrogen phosphate, 0.025% magnesium sulfate heptahydrate, 0.009% zinc sulfate heptahydrate, and 5.0% calcium carbonate; all the concentrations mean % (w/v)) applied to a 200-mL Erlenmeyer flask, and then cultured at 35° C. with stirring at 170 rpm. After 4.5-hour culture of the fungus bodies of the genus Rhizopus with stirring, the fungus bodies were filtered using a stainless screen filter holder (manufactured by EMD Millipore) sterilized in advance to recover fungus bodies onto the filter. On this filter holder, the fungus bodies were further washed with 100 mL of saline. The saline used in washing was removed by suction filtration. 0.3 g of the obtained fungus bodies was recovered into a 3-mL disruption tube (manufactured by Yasui Kikai Corp.). Metal cone for 3 mL (manufactured by Yasui Kikai Corp.) was added to the tube, which was then capped and then frozen in liquid nitrogen. The frozen 3-mL disruption tube was applied to Multi-Beads Shocker (manufactured by Yasui Kikai Corp.). The fungus bodies were disrupted at 1700 rpm for 10 seconds.

[2] = test system: Rhizopus oryzae JCM14625 strain (=NBRC 5384); test: Evaluation of ability to produce lactic acid-1 (production rate of lactic acid); format: cell-based; details: 0.5% (w/v) surfactant in PDB medium at spore germination; rate in the absence of the surfactant = 100
Protocol: Specifically, the mycelia of a fungus of the genus Rhizopus were prepared by the method of Production Example 2 using the surfactant and then grown by the method of Production Example 3. 6.0 g of the obtained wet fungus bodies of the genus Rhizopus was inoculated to 40 mL of an inorganic culture medium for lactic acid production evaluation (composition: 8.0% glucose, 0.1% ammonium sulfate, 0.06% potassium dihydrogen phosphate, 0.025% magnesium sulfate heptahydrate, 0.009% zinc sulfate heptahydrate, and 5.0% calcium carbonate; all the concentrations mean % (w/v)) applied to a 200-mL Erlenmeyer flask, and then cultured at 35° C. with stirring at 170 rpm. The supernatant of the culture medium was recovered every 2 hours from 30 minutes after the fungus body inoculation. Glucose and lactic acid were quantified by the procedures described later in Reference Example 1. A relative value of the production rate of lactic acid was determined on the basis of the calculation method described in Reference Example 2.
Glucose and lactic acid were quantified using an HPLC apparatus LaChrom Elite (manufactured by Hitachi High-Technologies Corp.). The analytical column used was a carbohydrate/organic acid analysis column HPX-87H (7.8 mm I.D.×30 cm, manufactured by Bio-Rad Laboratories, Inc.) connected with a guard column Cation H (4.6 mm I.D.×3.0 cm, manufactured by Bio-Rad Laboratories, Inc.). Elution was performed under conditions involving 10 mM sulfuric acid as an eluent, a flow rate of 0.85 mL/min, and a column temperature of 50° C. Glucose and lactic acid were detected using a differential refractive index detector (RI detector) and a UV detector (detection wavelength: 210 nm), respectively. The standard samples used were glucose (distributor code: 049-31165, manufactured by Wako Pure Chemical Industries Ltd.), and lithium L-lactate (product number: L2250, manufactured by Sigma-Aldrich Inc.). Quantification was performed on the basis of concentration calibration curves prepared using these standard samples.
The supernatant sample of each culture medium to be subjected to HPLC analysis was appropriately diluted in advance with 37 mM sulfuric acid and then applied to DISMIC-13cp (0.20 μm cellulose acetate membrane, manufactured by […] Group) or MULTI SCREEN MNHV45 (0.45 μm Durapore membrane, manufactured by EMD Millipore) to remove insoluble matter.
The concentration of lactic acid (unit: g of lactic acid/L of medium) in the supernatant sample of each culture medium was measured according to Reference Example 1 and divided by a time (unit: hr) required for change in lactic acid concentration to calculate the production rate of lactic acid per unit time (unit: g of lactic acid/L/hr). In addition, a relative value to the production rate of lactic acid under control conditions in each Production Example was determined.

[3] = Evaluation of foaming property by the inversion stirring method; format: physicochemical; details: for Volume of foam (relative value): 0.5% (w/v) surfactant in PDB medium, 30 seconds after stirring, foam in the absence of the surfactant = 100; for Volume of foam relative to the volume of foam in the absence of the surfactant (in words): 0.5% (w/v) in PDB medium
Protocol: Each surfactant used in Test Example 2 was evaluated for its foaming properties by the inversion stirring method. 100 mL of a PDB medium non-supplemented or supplemented with 0.5% (w/v) (final concentration) of a surfactant was added to a graduated cylindrical container of 50 mm in diameter and then inversion-stirred for 300 seconds using a flat propeller while the propeller was inverted every 6 seconds at 1000 rpm. 30 seconds after the completion of stirring, the volume of foam in the medium was measured.

Substance | LDH activity (relative value) [1] [relative value] | Production rate of lactic acid (relative value) [2] [relative value] | Volume of foam (relative value) [3] [relative value] | Volume of foam relative to the volume of foam in the absence of the surfactant (in words) [3] | LDH activity compared with control fungus bodies (in words) [1]
Polyoxyethylene (3) lauryl ether | 170 | 203 | 250 |  | 
Polyoxyethylene (4) lauryl ether | 214 | 171 | 350 |  | 
Polyoxyethylene (4) sorbitan monolaurate | 140 | 142 | 150 | twice or less | 
Polyoxyethylene (5) lauryl ether | 112 |  |  |  | 
Polyoxyethylene (6) lauryl ether | 93 |  |  |  | slightly lower LDH activity
Polyoxyethylene (10) octyl phenyl ether | 178 | 254 | 2000 |  | higher LDH activity
Polyoxyethylene (20) sorbitan monolaurate | 148 | 137 | 1350 |  | 
Sodium deoxycholate | 109 |  |  |  | higher LDH activity
Sorbitan monooleate | 135 | 113 | 100 | twice or less | higher LDH activity
